From patent US20040023991A1, “Use of pyrazolo[4,3-d]pyrimidines” (priority 2000, published 2004)

- melting point: 178 °C
SMILES: CCCc1nn(C)c2c(NCc3ccc(OC)c(Cl)c3)nc(CCC(=O)O)nc12 [Example 2, 3-[7-(3-chloro-4-methoxybenzylamino)-1-methyl-3-propyl-1H-pyrazolo[4,3-d]pyrimidin-5-yl]propionic acid]
